From PubChem BioAssay (NCI)
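A five-concentration, 48-hour dose response in 96-well plates underlies each endpoint, interpolated linearly between surrounding concentrations. GI50 = concentration required for 50% inhibition of growth. TGI: total growth inhibition.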

Tests used:
Assay in all cases: NCI-60 cell line screen, 48 h
[1] = system: SNB-75 CNS
[2] = system: NCI-H460 lung
[3] = system: A498 renal
[4] = system: SF-539 CNS
[5] = system: MALME-3M melanoma
[6] = system: UO-31 renal
[7] = system: OVCAR-8 ovarian
[8] = system: NCI-H522 lung
[9] = system: KM12 colon
[10] = system: HS 578T breast
[11] = system: SW-620 colon
[12] = system: OVCAR-3 ovarian
[13] = system: CAKI-1 renal
[14] = system: SNB-19 CNS
[15] = system: IGROV1 ovarian
[16] = system: HL-60(TB) leukemia
[17] = system: ACHN renal
[18] = system: HOP-62 NSCLC
[19] = system: TK-10 renal
[20] = system: HCT-15 colon
[21] = system: SF-268 CNS
[22] = system: SK-MEL-5 melanoma
[23] = system: OVCAR-4 ovarian
[24] = system: 786-0 renal
[25] = system: LOX IMVI melanoma
[26] = system: SK-MEL-28 melanoma
[27] = system: RPMI-8226 leukemia
[28] = system: MCF7 breast
[29] = system: UACC-257 melanoma
[30] = system: RXF 393 renal
[31] = system: MDA-MB-435
[32] = system: SF-295 CNS
[33] = system: A549 NSCLC
[34] = system: HT29 colon
[35] = system: OVCAR-5 ovarian
[36] = system: NCI/ADR-RES ovarian
[37] = system: CCRF-CEM leukemia
[38] = system: SR leukemia
[39] = system: BT-549 breast
[40] = system: T-47D breast
[41] = system: PC-3 prostate
[42] = system: SK-OV-3 ovarian
[43] = system: NCI-H226 lung
[44] = system: U251 CNS
[45] = system: UACC-62 melanoma
[46] = system: SK-MEL-2 melanoma
[47] = system: DU-145 prostate
[48] = system: HCC-2998 colon
[49] = system: HOP-92 NSCLC
[50] = system: HCT-116 colon
[51] = system: MDA-MB-231 breast
[52] = system: EKVX NSCLC
[53] = system: K-562 leukemia
[54] = system: M14 melanoma
[55] = system: MOLT-4 leukemia
[56] = system: SN12C renal
[57] = system: NCI-H23 lung

`Cc1cn(-c2cc(NC(=O)c3cncc(C#Cc4cnc5ccc(OCCCS(C)(=O)=O)nn45)c3)cc(C(F)(F)F)c2)cn1` was tested, and the GI50 [1] was 0.129 µM, the TGI [1] was 1.76 µM and the GI50 [2] was 3 µM. For the same compound, the TGI [2] was greater than 100 µM, the GI50 [3] was greater than 100 µM and the TGI [3] was greater than 100 µM. The GI50 [4] was 0.552 µM, the TGI [4] was 7.35 µM and the GI50 [5] was 0.397 µM. It also gave a TGI [5] of 5.11 µM, a GI50 [6] of 3.59 µM and a TGI [6] greater than 100 µM. The GI50 [7] was 0.649 µM, the TGI [7] was greater than 100 µM and the GI50 [8] was 1.21 µM. The TGI [8] was 3 µM, the TGI [9] was 3.36 µM and the GI50 [10] was 1.43 µM. The TGI [10] was 7.03 µM, the GI50 [11] was 0.462 µM and the TGI [11] was greater than 100 µM. The GI50 [12] was 2.51 µM, the TGI [12] was greater than 100 µM and the GI50 [13] was 0.501 µM. The TGI [13] was 11.8 µM, the GI50 [14] was 2.57 µM and the TGI [14] was greater than 100 µM. The GI50 [15] was 0.527 µM, the TGI [15] was greater than 100 µM and the GI50 [16] was 0.401 µM. For the same compound, the TGI [16] was 2.51 µM, the GI50 [17] was 4.76 µM and the TGI [17] was greater than 100 µM. The GI50 [18] was 1.14 µM, the TGI [18] was greater than 100 µM and the GI50 [19] was 3.21 µM. It also gave a TGI [19] greater than 100 µM, a GI50 [20] of 5.84 µM and a TGI [20] greater than 100 µM. It also gave a GI50 [21] of 1.41 µM, a TGI [21] of 6.98 µM and a GI50 [22] of 1.55 µM. For the same compound, the TGI [22] was 10.5 µM, the GI50 [23] was 5.78 µM and the TGI [23] was greater than 100 µM. It also gave a GI50 [24] of 2.01 µM, a TGI [24] greater than 100 µM and a GI50 [25] of 0.875 µM. The TGI [25] was 27.1 µM, the GI50 [26] was 1.51 µM and the TGI [26] was greater than 100 µM. For the same compound, the GI50 [27] was 2.55 µM, the TGI [27] was 92.6 µM and the GI50 [28] was 0.31 µM. For the same compound, the TGI [28] was 2.52 µM, the GI50 [29] was 3.98 µM and the TGI [29] was greater than 100 µM. The GI50 [30] was 1.14 µM, the TGI [30] was 3.32 µM and the GI50 [31] was 1.49 µM. It also gave a TGI [31] greater than 100 µM, a GI50 [32] of 29.1 µM and a TGI [32] greater than 100 µM. For the same compound, the GI50 [33] was 5.34 µM, the TGI [33] was greater than 100 µM and the GI50 [34] was 0.706 µM. It also gave a TGI [34] greater than 100 µM, a GI50 [35] of 1.79 µM and a TGI [35] greater than 100 µM. The GI50 [36] was greater than 100 µM, the TGI [36] was greater than 100 µM and the GI50 [37] was 0.389 µM. It also gave a TGI [37] of 3.61 µM, a GI50 [38] of 0.303 µM and a TGI [38] of 4.82 µM. For the same compound, the GI50 [39] was 1.7 µM, the TGI [39] was 10.6 µM and the GI50 [40] was 1.76 µM. It also gave a TGI [40] greater than 100 µM, a GI50 [41] of 5.88 µM and a TGI [41] greater than 100 µM. For the same compound, the GI50 [42] was greater than 100 µM, the TGI [42] was greater than 100 µM and the GI50 [43] was 0.922 µM. The TGI [43] was 49.1 µM, the GI50 [44] was 2.67 µM and the TGI [44] was greater than 100 µM. It also gave a GI50 [45] of 0.706 µM, a TGI [45] greater than 100 µM and a GI50 [46] of 0.427 µM. It also gave a TGI [46] of 2.88 µM, a GI50 [47] of 1.18 µM and a TGI [47] greater than 100 µM. For the same compound, the GI50 [48] was 1.94 µM, the TGI [48] was greater than 100 µM and the GI50 [49] was 0.188 µM. For the same compound, the TGI [49] was 0.713 µM, the GI50 [50] was 0.317 µM and the TGI [50] was 3.22 µM. For the same compound, the GI50 [51] was 0.43 µM, the TGI [51] was greater than 100 µM and the GI50 [52] was 2.35 µM. For the same compound, the TGI [52] was greater than 100 µM, the GI50 [53] was 0.128 µM and the TGI [53] was greater than 100 µM. For the same compound, the GI50 [54] was 1.1 µM, the TGI [54] was 49.4 µM and the GI50 [55] was 0.635 µM. The TGI [55] was 6.71 µM, the GI50 [56] was 0.551 µM and the TGI [56] was greater than 100 µM.
With `NC(N)=Nc1ccc(Oc2cccc(Nc3ccc(Cl)cc3)c2)cn1` the GI50 [1] was 1.27 µM, the TGI [1] was 2.57 µM and the GI50 [3] was 1.17 µM. For the same compound, the TGI [3] was 2.66 µM, the GI50 [4] was 1.65 µM and the TGI [4] was 3.13 µM. It also gave a GI50 [6] of 1.71 µM, a TGI [6] of 3.28 µM and a GI50 [7] of 1.97 µM. It also gave a TGI [7] of 4.46 µM, a GI50 [8] of 1.53 µM and a TGI [8] of 3.13 µM. The GI50 [9] was 2.08 µM, the TGI [9] was 4.58 µM and the GI50 [10] was 1.99 µM. The TGI [10] was 4.52 µM, the GI50 [11] was 1.83 µM and the TGI [11] was 3.55 µM. For the same compound, the GI50 [12] was 1.8 µM, the TGI [12] was 3.63 µM and the GI50 [13] was 1.64 µM. For the same compound, the TGI [13] was 3.17 µM, the GI50 [16] was 2.52 µM and the TGI [16] was 4.75 µM. The GI50 [17] was 1.73 µM, the TGI [17] was 3.13 µM and the GI50 [19] was 1.69 µM. The TGI [19] was 3.3 µM, the GI50 [21] was 1.72 µM and the TGI [21] was 3.75 µM. For the same compound, the GI50 [26] was 1.67 µM, the TGI [26] was 3.12 µM and the GI50 [27] was 2.02 µM. The TGI [27] was 5.08 µM, the GI50 [30] was 1.78 µM and the TGI [30] was 3.37 µM. For the same compound, the GI50 [36] was 4.05 µM, the TGI [36] was 20.5 µM and the GI50 [37] was 2.04 µM. It also gave a TGI [37] of 5.27 µM, a GI50 [41] of 1.46 µM and a TGI [41] of 2.84 µM. It also gave a GI50 [42] of 2.11 µM, a TGI [42] of 4.16 µM and a GI50 [45] of 1.74 µM. It also gave a TGI [45] of 3.28 µM, a GI50 [47] of 1.76 µM and a TGI [47] of 3.27 µM. For the same compound, the GI50 [49] was 1.07 µM, the TGI [49] was 2.39 µM and the GI50 [57] was 1.66 µM. The TGI [57] was 3.24 µM, the GI50 [53] was 2.66 µM and the TGI [53] was 8.21 µM.
